Laboratory results as given in the supplement of paper PMC11061612.

Legend:
[1] = compound: C1CN(CCC1(C(=O)N[C@@H](CCO)C2=CC=C(C=C2)Cl)N)C3=NC=NC4=C3C=CN4 [Capivasertib]; details: max 10 µM
Procedure, shortened: (§1)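 Cancer cell lines were plated in 1536-well plates in 7.5 μl of DMEM/F12 or RPMI with 10% FBS and kept 24 hours at 37°C and 5% CO2 before 72 hours of dosing, with final DMSO typically 0.2%. CellTiter-Glo 2.0 luminescence measured viability, scaled between blank-well and DMSO-well means. Dose responses were fitted to a two-parameter logistic curve with a non-linear mixed effects model. This fit gives the single-agent IC50.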

[2] = compound: C=CCn1c(=O)c2cnc(Nc3ccc(N4CCN(C)CC4)cc3)nc2n1-c1cccc(C(C)(C)O)n1 [AZD1775]; details: max 3 µM
Procedure, shortened: as §1

[3] = compound: CC(=O)Nc1cccc(-n2c(=O)n(C3CC3)c(=O)c3c(Nc4ccc(I)cc4F)n(C)c(=O)c(C)c32)c1 [Trametinib]; details: max 1 µM
Procedure, shortened: as §1

[4] = compound: CC(=O)c1c(C)c2cnc(Nc3ccc(N4CCNCC4)cn3)nc2n(C2CCCC2)c1=O [Palbociclib]; details: max 10 µM
Procedure, shortened: as §1

[5] = compound: CC(C)n1c(=O)n(C)c2cnc3cc(F)c(-c4ccc(OCCCN5CCCCC5)nc4)cc3c21 [AZD1390]; details: max 0.3 µM
Procedure, shortened: as §1

[6] = compound: CC1(C)CCC(CN2CCN(c3ccc(C(=O)NS(=O)(=O)c4ccc(NCC5CCOCC5)c([N+](=O)[O-])c4)c(Oc4cnc5[nH]ccc5c4)c3)CC2)=C(c2ccc(Cl)cc2)C1 [Venetoclax]; details: max 1 µM
Procedure, shortened: as §1

[7] = compound: CC1=C(C(=CC=C1)Cl)NC(=O)C2=CN=C(S2)NC3=CC(=NC(=N3)C)N4CCN(CC4)CCO [Dasatinib]; details: max 2 µM
Procedure, shortened: as §1

[8] = compound: CC1=CN2[C@@H](C1)C=NC3=CC(=C(C=C3C2=O)OC)OCCCCCOC4=C(C=C5C(=C4)N=C[C@@H]6CC(=CN6C5=O)C)OC [SG3199]; details: max 0.001 µM
Procedure, shortened: as §1

[9] = compound: CCN(CCO)CCCOc1ccc2c(Nc3cc(CC(=O)Nc4cccc(F)c4)[nH]n3)ncnc2c1 [AZD2811]; details: max 1 µM
Procedure, shortened: as §1

[10] = compound: CCc1c2c(nc3ccc(O)cc13)-c1cc3c(c(=O)n1C2)COC(=O)[C@]3(O)CC [SN-38]; details: max 0.3 µM
Procedure, shortened: as §1

[11] = compound: CN(C)CCCOc1ccc(-c2ccc3ncc4c(c3c2)n(C2CCOCC2)c(=O)n4C)cn1 [AZD0156]; details: max 3 µM
Procedure, shortened: as §1

[12] = compound: CN(CC[C@H](CSC1=CC=CC=C1)NC2=C(C=C(C=C2)S(=O)(=O)NC(=O)C3=CC=C(C=C3)N4CCC(CC4)[C@H](C5=CC=CC=C5C6=CC=C(C=C6)Cl)O)S(=O)(=O)C(F)(F)F)CCO [AZD4320]; details: max 1 µM
Procedure, shortened: as §1

[13] = compound: COc1cc(Nc2ncc3c(n2)-c2ccc(Cl)cc2C(c2c(F)cccc2OC)=NC3)ccc1C(=O)O [Alisertib]; details: max 10 µM
Procedure, shortened: as §1

[14] = compound: COc1cc2ncnc(Nc3ccc(F)c(Cl)c3)c2cc1OCCCN1CCOCC1 [Gefitinib]; details: max 10 µM
Procedure, shortened: as §1

[15] = compound: COc1cccc(OCCCN)c1-c1cc(Nc2cnc(C#N)cn2)n[nH]1 [Prexasertib]; details: max 1 µM
Procedure, shortened: as §1

[16] = compound: COc1cccc2c1C(=O)c1c(O)c3c(c(O)c1C2=O)C[C@@](O)(C(=O)CO)C[C@@H]3O[C@H]1C[C@H](N)[C@H](O)[C@H](C)O1 [Doxorubicin]; details: max 1 µM
Procedure, shortened: as §1

[17] = compound: COc1nnc2ccc(N3CCC(c4ccc(OCCN5CCN(C)C(=O)[C@H]5C)cc4)CC3)nn12 [AZD5153]; details: max 1 µM
Procedure, shortened: as §1

[18] = compound: CS(=O)(=O)CCNCc1ccc(-c2ccc3ncnc(Nc4ccc(OCc5cccc(F)c5)c(Cl)c4)c3c2)o1 [Lapatinib]; details: max 10 µM
Procedure, shortened: as §1

[19] = compound: C[C@@H](Nc1cc(F)cc(F)c1)c1cc(C(=O)N(C)C)cc2c(=O)cc(N3CCOCC3)oc12 [AZD8186]; details: max 3 µM
Procedure, shortened: as §1

[20] = compound: C[C@@H](Oc1cc(-c2cnn(C3CCNCC3)c2)cnc1N)c1c(Cl)ccc(F)c1Cl [Crizotinib]; details: max 10 µM
Procedure, shortened: as §1

[21] = compound: C[C@@H](c1ccc2nccn2c1)n1nnc2ncc(-c3cnn(C)c3)nc21 [Savolitinib]; details: max 1 µM
Procedure, shortened: as §1

[22] = compound: C[C@@H]1COCCN1C2=NC(=NC(=C2)C3(CC3)[S@](=N)(=O)C)C4=C5C=CNC5=NC=C4 [AZD6738]; details: max 10 µM
Procedure, shortened: as §1

[23] = compound: Cc1c2c(nn1C)CSCc1cc(n(C)n1)CSc1cc(c3ccccc3c1)OCCCc1c(C(=O)O)n(C)c3c-2c(Cl)ccc13 [AZD5991]; details: max 1 µM
Procedure, shortened: as §1

[24] = compound: Cc1cc2ncnn2cc1Nc1ncc2c(n1)n(C1CCOCC1)c(=O)n2C [AZD7648]; details: max 10 µM
Procedure, shortened: as §1

[25] = compound: Cc1nc(-c2cn3c(n2)-c2ccc(-c4cnn(C(C)(C)C(N)=O)c4)cc2OCC3)n(C(C)C)n1 [Taselisib]; details: max 10 µM
Procedure, shortened: as §1

[26] = compound: Cn1cnc2c(F)c(Nc3ccc(Br)cc3Cl)c(C(=O)NOCCO)cc21 [Selumetinib]; details: max 10 µM
Procedure, shortened: as §1

[27] = compound: O=C(c1cc(Cc2n[nH]c(=O)c3ccccc23)ccc1F)N1CCN(C(=O)C2CC2)CC1 [Olaparib]; details: max 10 µM
Procedure, shortened: as §1

| Cell Line | IC50, cell viability 72 h [1] [µM] | IC50, cell viability 72 h [2] [µM] | IC50, cell viability 72 h [3] [µM] | IC50, cell viability 72 h [4] [µM] | IC50, cell viability 72 h [5] [µM] | IC50, cell viability 72 h [6] [µM] | IC50, cell viability 72 h [7] [µM] | IC50, cell viability 72 h [8] [µM] | IC50, cell viability 72 h [9] [µM] | IC50, cell viability 72 h [10] [µM] | IC50, cell viability 72 h [11] [µM] | IC50, cell viability 72 h [12] [µM] | IC50, cell viability 72 h [13] [µM] | IC50, cell viability 72 h [14] [µM] | IC50, cell viability 72 h [15] [µM] | IC50, cell viability 72 h [16] [µM] | IC50, cell viability 72 h [17] [µM] | IC50, cell viability 72 h [18] [µM] | IC50, cell viability 72 h [19] [µM] | IC50, cell viability 72 h [20] [µM] | IC50, cell viability 72 h [21] [µM] | IC50, cell viability 72 h [22] [µM] | IC50, cell viability 72 h [23] [µM] | IC50, cell viability 72 h [24] [µM] | IC50, cell viability 72 h [25] [µM] | IC50, cell viability 72 h [26] [µM] | IC50, cell viability 72 h [27] [µM] |
| --- | --- | --- | --- | --- | --- | --- | --- | --- | --- | --- | --- | --- | --- | --- | --- | --- | --- | --- | --- | --- | --- | --- | --- | --- | --- | --- | --- |
| OS-RC-2 (Kidney Carcinoma) | > 10 | > 3 | > 1 | > 10 | > 0.3 | > 1 | > 2 | > 0.001 | > 1 | > 0.3 | > 3 | > 1 | > 10 | > 10 | 0.433 | > 1 | > 1 | > 10 | 1.91 | > 10 | > 1 | > 10 | > 1 | > 10 | > 10 | > 10 | > 10 |
| PA-1 (Ovarian Carcinoma) | 0.941 | 0.543 | 0.869 | 1.62 | > 0.3 | > 1 | 0.0302 | > 0.001 | > 1 | 0.0196 | > 3 | > 1 | 0.238 | > 10 | 0.187 | 0.209 | 0.0411 | 5.15 | 1.06 | 3.09 | > 1 | 3.17 | 0.0807 | > 10 | 0.248 | > 10 | > 10 |
| SISO (Cervical Carcinoma) | > 10 | 1.53 | > 1 | > 10 | > 0.3 | > 1 | > 2 | > 0.001 | > 1 | 0.0236 | > 3 | > 1 | 6.21 | > 10 | 0.237 | 0.29 | > 1 | > 10 | > 3 | > 10 | > 1 | > 10 | > 1 | > 10 | > 10 | > 10 | > 10 |
| SK-MES-1 (Squamous Cell Lung Carcinoma) | > 10 | 1.36 | 0.178 | > 10 | > 0.3 | > 1 | > 2 | > 0.001 | > 1 | 0.0305 | > 3 | > 1 | > 10 | > 10 | 0.0605 | > 1 | > 1 | 6.63 | > 3 | > 10 | > 1 | 8 | > 1 | > 10 | 4.88 | > 10 | > 10 |
| SK-MG-1 (Low Grade Glioma) | > 10 | > 3 | > 1 | > 10 | > 0.3 | > 1 | 0.886 | > 0.001 | > 1 | 0.06 | > 3 | > 1 | > 10 | > 10 | 0.0828 | > 1 | > 1 | > 10 | 2.73 | > 10 | > 1 | > 10 | > 1 | > 10 | 1.62 | > 10 | > 10 |
| TT2609-C02 (Thyroid Gland Carcinoma) | > 10 | > 3 | 0.28 | > 10 | > 0.3 | > 1 | > 2 | > 0.001 | > 1 | 0.069 | > 3 | > 1 | > 10 | > 10 | > 1 | > 1 | > 1 | > 10 | > 3 | > 10 | > 1 | > 10 | > 1 | > 10 | > 10 | 6.35 | > 10 |
